{
  "source": "patent US5057493A",
  "about": "“Novel antibiotics R106” (priority 1988, dated 1991)",
  "key": {"[1]": {"system": "Paracoccidioides brasiliensis TIMM 0878", "assay": "MIC by agar dilution method, casitone agar", "type": "cell-based", "settings": "27° C. for 7 days", "description": "(§1) The antibiotics R106 of the present invention are active against various fungi including pathogenic fungi. The minimum inhibitory concentration (MIC) of each antibiotic against various fungi was determined by the agar dilution method using casitone agar medium (2.0% glucose, 0.9% bacto-casitone, 1.0% yeast extract, 0.1% KH2 PO4, 0.1% Na2 HPO4, 1.0% sodium citrate, 2.0% agar: concentrations are all by w/v).\n(§2) After culturing at 27° C. for 7 days, each minimum inhibitory concentration was determined."}, "[2]": {"system": "Paracoccidioides brasiliensis TIMM 0880", "assay": "MIC by agar dilution method, casitone agar", "type": "cell-based", "settings": "27° C. for 7 days", "description": "as §1, §2"}, "[3]": {"system": "Candida glabrata TIMM 1064", "assay": "MIC by agar dilution method, casitone agar", "type": "cell-based", "settings": "27° C. for 4 days", "description": "as §1, with “The” for “The antibiotics R106 of the present invention are active against various fungi including pathogenic fungi. The”\n(§3) Each minimum growth inhibitory concentration was determined after culturing at 27° C. for 4 days."}, "[4]": {"system": "Cryptococcus neoformans TIMM 0354", "assay": "MIC by agar dilution method, casitone agar", "type": "cell-based", "settings": "27° C. for 4 days", "description": "as §1, with “The” for “The antibiotics R106 of the present invention are active against various fungi including pathogenic fungi. The”\nas §3"}, "[5]": {"system": "Cryptococcus neoformans TIMM 0355", "assay": "MIC by agar dilution method, casitone agar", "type": "cell-based", "settings": "27° C. for 4 days", "description": "as §1, with “The” for “The antibiotics R106 of the present invention are active against various fungi including pathogenic fungi. The”\nas §3"}, "[6]": {"system": "Candida tropicalis TIMM 0312", "assay": "MIC by agar dilution method, casitone agar", "type": "cell-based", "settings": "27° C. for 4 days", "description": "as §1, with “The” for “The antibiotics R106 of the present invention are active against various fungi including pathogenic fungi. The”\nas §3"}, "[7]": {"system": "Candida albicans var. stellatoidia TIMM 1308", "assay": "MIC by agar dilution method, casitone agar", "type": "cell-based", "settings": "27° C. for 4 days", "description": "as §1, with “The” for “The antibiotics R106 of the present invention are active against various fungi including pathogenic fungi. The”\nas §3"}, "[8]": {"system": "Rhodotorula rubra TIMM 0923", "assay": "MIC by agar dilution method, casitone agar", "type": "cell-based", "settings": "27° C. for 4 days", "description": "as §1, with “The” for “The antibiotics R106 of the present invention are active against various fungi including pathogenic fungi. The”\nas §3"}, "[9]": {"system": "Candida albicans TIMM 1623", "assay": "MIC by agar dilution method, casitone agar", "type": "cell-based", "settings": "27° C. for 4 days", "description": "as §1, with “The” for “The antibiotics R106 of the present invention are active against various fungi including pathogenic fungi. The”\nas §3"}, "[10]": {"system": "Candida parapsilosis TIMM 0287", "assay": "MIC by agar dilution method, casitone agar", "type": "cell-based", "settings": "27° C. for 4 days", "description": "as §1, with “The” for “The antibiotics R106 of the present invention are active against various fungi including pathogenic fungi. The”\nas §3"}, "[11]": {"system": "Candida glabrata TIMM 1062", "assay": "MIC by agar dilution method, casitone agar", "type": "cell-based", "settings": "27° C. for 4 days", "description": "as §1, with “The” for “The antibiotics R106 of the present invention are active against various fungi including pathogenic fungi. The”\nas §3"}, "Candida kefyr TIMM 0298": {"system": "Candida kefyr TIMM 0298", "assay": "MIC by agar dilution method, casitone agar", "type": "cell-based", "settings": "27° C. for 4 days", "description": "as §1, with “The” for “The antibiotics R106 of the present invention are active against various fungi including pathogenic fungi. The”\nas §3"}, "Candida krusei TIMM 0270": {"system": "Candida krusei TIMM 0270", "assay": "MIC by agar dilution method, casitone agar", "type": "cell-based", "settings": "27° C. for 4 days", "description": "as §1, with “The” for “The antibiotics R106 of the present invention are active against various fungi including pathogenic fungi. The”\nas §3"}, "[12]": {"system": "Cryptococcus terreus TIMM 0424", "assay": "MIC by agar dilution method, casitone agar", "type": "cell-based", "settings": "27° C. for 4 days", "description": "as §1, with “The” for “The antibiotics R106 of the present invention are active against various fungi including pathogenic fungi. The”\nas §3"}, "[13]": {"system": "Cryptococcus neoformans TIMM 0363", "assay": "MIC by agar dilution method, casitone agar", "type": "cell-based", "settings": "27° C. for 4 days", "description": "as §1, with “The” for “The antibiotics R106 of the present invention are active against various fungi including pathogenic fungi. The”\nas §3"}, "[14]": {"system": "Cryptococcus laurentii TIMM 0352", "assay": "MIC by agar dilution method, casitone agar", "type": "cell-based", "settings": "27° C. for 4 days", "description": "as §1, with “The” for “The antibiotics R106 of the present invention are active against various fungi including pathogenic fungi. The”\nas §3"}, "[15]": {"system": "Candida albicans TIMM 0144", "assay": "MIC by agar dilution method, casitone agar", "type": "cell-based", "settings": "27° C. for 4 days", "description": "as §1, with “The” for “The antibiotics R106 of the present invention are active against various fungi including pathogenic fungi. The”\nas §3"}, "[16]": {"system": "Candida tropicalis TIMM 0315", "assay": "MIC by agar dilution method, casitone agar", "type": "cell-based", "settings": "27° C. for 4 days", "description": "as §1, with “The” for “The antibiotics R106 of the present invention are active against various fungi including pathogenic fungi. The”\nas §3"}, "[17]": {"system": "Candida guilliermondii TIMM 0257", "assay": "MIC by agar dilution method, casitone agar", "type": "cell-based", "settings": "27° C. for 4 days", "description": "as §1, with “The” for “The antibiotics R106 of the present invention are active against various fungi including pathogenic fungi. The”\nas §3"}, "[18]": {"system": "Candida albicans TIMM 1529", "assay": "MIC by agar dilution method, casitone agar", "type": "cell-based", "settings": "27° C. for 4 days", "description": "as §1, with “The” for “The antibiotics R106 of the present invention are active against various fungi including pathogenic fungi. The”\nas §3"}, "[19]": {"system": "Trichosporon cutanum TIMM 1318", "assay": "MIC by agar dilution method, casitone agar", "type": "cell-based", "settings": "27° C. for 7 days"}, "[20]": {"system": "Cladosporium carrionii TIMM 0337", "assay": "MIC by agar dilution method, casitone agar", "type": "cell-based", "settings": "27° C. for 7 days"}, "[21]": {"system": "Cladosporium bantianum TIMM 0343", "assay": "MIC by agar dilution method, casitone agar", "type": "cell-based", "settings": "27° C. for 7 days"}, "[22]": {"system": "Aspergillus nidulans TIMM 0112", "assay": "MIC by agar dilution method, casitone agar", "type": "cell-based", "settings": "27° C. for 7 days"}, "[23]": {"system": "Aspergillus niger TIMM 0113", "assay": "MIC by agar dilution method, casitone agar", "type": "cell-based", "settings": "27° C. for 7 days"}, "[24]": {"assay": "50% lethal dose (LD50) in mice", "type": "in vivo", "source_text": "All of the antibiotics R106 show low toxicity. The results of 50% lethal dose (LD50) obtained when each of representative compounds of the present invention was given to mice intravenously, intraperitoneally and orally are shown in Table 7."}, "[25]": {"system": "Histoplasma capsulatum TIMM 0713", "type": "cell-based", "settings": "27° C. for 7 days"}, "[26]": {"system": "Aspergillus terreus TIMM 0120", "assay": "MIC by agar dilution method, casitone agar", "type": "cell-based", "settings": "27° C. for 7 days"}},
  "note": "Starred links: 1 amine or outer side, 2 acyl side, 3 side chain; linkers in the order of their positions; H or OH if unused. Non-standard residues stand in square brackets, D forms with d. Residues, ends and D or L forms follow the SMILES beside them. ξ: configuration not given here. ξNMeVal(3-OH) = CNC(C(=O)O)C(C)(C)O; NMeF = CN[CH](Cc1ccccc1)C(=O)O; X1 = CCC(C)C(O[*:1])C(=O)[*:2]; NMeV = CN[CH](C(=O)O)C(C)C",
  "data": [
    {"smiles": "CCC(C)C1NC(=O)C2CCCN2C(=O)C(Cc2ccccc2)N(C)C(=O)C(Cc2ccccc2)NC(=O)C(C(C)C)N(C)C(=O)C(C(C)CC)OC(=O)C(C(C)(C)O)N(C)C(=O)C(CC(C)C)NC(=O)C(C(C)C)N(C)C1=O", "note": "(stereo not drawn) [Compound 1] (cyclo([ξNMeVal(3-OH)][X1][NMeV]F[NMeF]PI[NMeV]L); configuration not given here)", "values": [
      {"measurement": "Minimum Inhibitory Concentration", "setting": "[1]", "value": 80, "unit": "µg/mL"},
      {"measurement": "Minimum Inhibitory Concentration", "setting": "[2]", "value": 0.31, "unit": "µg/mL"},
      {"measurement": "Minimum Inhibitory Concentration", "setting": "[3]", "value": 0.08, "unit": "µg/mL"},
      {"measurement": "Minimum Inhibitory Concentration", "setting": "[4]", "value": 0.63, "unit": "µg/mL"},
      {"measurement": "Minimum Inhibitory Concentration", "setting": "[5]", "value": 0.31, "unit": "µg/mL"},
      {"measurement": "Minimum Inhibitory Concentration", "setting": "[6]", "value": 0.08, "unit": "µg/mL"},
      {"measurement": "Minimum Inhibitory Concentration", "setting": "[7]", "value": "≤ 0.04", "unit": "µg/mL"},
      {"measurement": "Minimum Inhibitory Concentration", "setting": "[8]", "value": 0.63, "unit": "µg/mL"},
      {"measurement": "Minimum Inhibitory Concentration", "setting": "[9]", "value": "≤ 0.04", "unit": "µg/mL"},
      {"measurement": "Minimum Inhibitory Concentration", "setting": "[10]", "value": 0.16, "unit": "µg/mL"},
      {"measurement": "Minimum Inhibitory Concentration", "setting": "[11]", "value": "≤ 0.04", "unit": "µg/mL"},
      {"measurement": "Minimum Inhibitory Concentration", "setting": "Candida kefyr TIMM 0298", "value": 0.16, "unit": "µg/mL"},
      {"measurement": "Minimum Inhibitory Concentration", "setting": "Candida krusei TIMM 0270", "value": "≤ 0.04", "unit": "µg/mL"},
      {"measurement": "Minimum Inhibitory Concentration", "setting": "[12]", "value": 0.31, "unit": "µg/mL"},
      {"measurement": "Minimum Inhibitory Concentration", "setting": "[13]", "value": 1.25, "unit": "µg/mL"},
      {"measurement": "Minimum Inhibitory Concentration", "setting": "[14]", "value": 0.31, "unit": "µg/mL"},
      {"measurement": "Minimum Inhibitory Concentration", "setting": "[15]", "value": "≤ 0.04", "unit": "µg/mL"},
      {"measurement": "Minimum Inhibitory Concentration", "setting": "[16]", "value": 0.08, "unit": "µg/mL"},
      {"measurement": "Minimum Inhibitory Concentration", "setting": "[17]", "value": 0.08, "unit": "µg/mL"},
      {"measurement": "Minimum Inhibitory Concentration", "setting": "[18]", "value": "≤ 0.04", "unit": "µg/mL"},
      {"measurement": "Minimum Inhibitory Concentration", "setting": "[19]", "value": "> 80", "unit": "µg/mL"},
      {"measurement": "Minimum Inhibitory Concentration", "setting": "[20]", "value": 1.25, "unit": "µg/mL"},
      {"measurement": "Minimum Inhibitory Concentration", "setting": "[21]", "value": 0.63, "unit": "µg/mL"},
      {"measurement": "Minimum Inhibitory Concentration", "setting": "[22]", "value": 0.16, "unit": "µg/mL"},
      {"measurement": "Minimum Inhibitory Concentration", "setting": "[23]", "value": "> 80", "unit": "µg/mL"},
      {"measurement": "LD50", "setting": "[24]; i.p.", "value": "> 400", "unit": "mg/kg"},
      {"measurement": "LD50", "setting": "[24]; i.v.", "value": "> 200", "unit": "mg/kg"},
      {"measurement": "LD50", "setting": "[24]; p.o.", "value": "> 1000", "unit": "mg/kg"},
      {"measurement": "Minimum Inhibitory Concentration", "setting": "[25]", "value": 0.16, "unit": "µg/mL"},
      {"measurement": "Minimum Inhibitory Concentration", "setting": "[26]", "value": 5, "unit": "µg/mL"}
    ]}
  ]
}
